Data published in patent publication US9968582B2, “Use of a benzoate containing composition in urea cycle disorders and neurodegenerative disorders” (Rush University Medical Center, priority 2014, dated 2018).

Key:
DJ-1 [1] = test: MPTP mouse model of PD, Western blot of DJ-1 in the nigra; type: in vivo, mice; conditions: MPTP intoxication; FIG. 9A-B
Procedure: (§1) Six- to eight-week old C57BL/6 mice were purchased from Harlan (Indianapolis, Ind.). For acute MPTP intoxication, mice received four intraperitoneal (i.p.) injections of MPTP-HCl (18 mg/kg of free base; Sigma Chemical Co., St. Louis, Mo.) in saline at 2-h intervals. Control animals received only saline.
(§2) GTB was mixed in 0.5% methylcellulose (MC) and from 3 h after the last injection of MPTP, mice were gavaged 100 μL GTB-mixed MC once daily using gavage needle. Therefore, control MPTP mice received only MC as vehicle.
(§3) Immunoblot analysis for DJ-1 and TH was carried out. Briefly, cell homogenates were electrophoresed, proteins were transferred onto a nitrocellulose membrane, and bands were visualized with an Odyssey infrared scanner after immunolabeling with respective primary antibodies followed by infra-red fluorophore-tagged secondary antibody (Invitrogen).
Upregulation and/or maintenance of PD-related beneficial protein such as DJ-1 in the nigra during neurodegenerative insults may have therapeutic efficacy in PD.

[2] = test system: Tyrosine hydroxylase (TH); test: MPTP mouse model of PD, Western blot of nigral TH; type: in vivo, mice; conditions: MPTP intoxication compared with saline-injected controls; FIG. 9A-B
Procedure: as §1, §2, §3
Tyrosine hydroxylase (TH), the key enzyme responsible for the production of dopamine, is present in dopaminergic neurons. MPTP-intoxication led to approximately 60% loss of nigral TH (FIG. 9A-B) compared with saline-injected controls.

[3] = test system: dopamine (DA) in the striata; test: MPTP mouse model of PD, HPLC of striatal dopamine; type: in vivo, mice; conditions: MPTP intoxication compared to saline-injected control mice, 7 days; FIG. 10
Procedure: as §1, §2
Striatal level of dopamine was quantified in Complete Stand-Alone HPLC-ECD System EiCOMHTEC-500 (JM Science Inc., Grand Island, N.Y.). Briefly, mice were sacrificed by cervical dislocation after 7 days of MPTP intoxication and their striata were collected and immediately frozen in dry ice and stored at −80° C. until analysis. On the day of the analysis, tissues were sonicated in 0.2M perchloric acid containing isoproterenol and resulting homogenates were centrifuged at 20,000×g for 15 min at 4 C. After pH adjustment and filtration, 10 μl of supernatant was injected onto an Eicompak SC-3ODS column (Complete Stand-Alone HPLC-ECD System EiCOMHTEC-500 from JM Science Inc., Grand Island, N.Y.) and analyzed following the manufacturer's protocol.
Next, to determine whether GTB protects against biochemical deficits caused by MPTP, the inventor quantified levels of dopamine (DA) in the striata 7 days after the MPTP treatment. As evident from FIG. 10, MPTP intoxication led to about 75% decrease in striatal DA compared to striata of saline-injected control mice.

[4] = test system: disease process of multiple sclerosis (MS) in mice; conditions: cited from earlier work
DJ-1 [5] = conditions: astrocytes and neurons (cited title); cited from earlier work
BDNF = conditions: brain cells; cited from earlier work
NT-3 = conditions: brain cells; cited from earlier work
[6] = in vivo; cited from earlier work

SMILES | level of DJ-1 in the nigra (DJ-1 [1]) | loss of nigral TH [2] | decrease in striatal DA [3] | disease process of multiple sclerosis (MS) [4] | DJ-1 protein (DJ-1 [5]) | production of BDNF (BDNF) | production of NT-3 (NT-3) | metabolism and excretion [6]
CN1CC=C(c2ccccc2)CC1 [MPTP, reference compound] | decreased the level of DJ-1 | approximately 60% | about 75% |  |  |  |  | 
O=C([O-])c1ccccc1.[Na+] [sodium benzoate] |  |  |  | suppresses the disease process | up-regulates | increases the production | increases the production | quickly metabolized and excreted from the body
